What was measured:
Experiment in all cases: relative viability (nuclei count vs DMSO), 5 days (fraction); higher = more cells survive
GSK126 + AZD7762 = compound: CC[C@H](C)N1C=C(C2=C(C=C(C=C21)C3=CN=C(C=C3)N4CCNCC4)C(=O)NCC5=C(C=C(NC5=O)C)C)C [GSK126] + NC(=O)Nc1cc(-c2cccc(F)c2)sc1C(=O)N[C@H]1CCCNC1 [AZD7762] (partner 0.2 µM)
Method in brief: (§1)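 Nuclei were stained with Hoechst during a one-step fixation (final 0.05% Triton X-100, 1% formaldehyde, 1 ug/ml Hoechst) carried out 5 days after dosing, then counted on 4× images. The cells, lung cancer lines in 1536-well plates, had been dosed by pin tool the day after seeding with one drug alone or a fixed anchor-drug dose plus five library-drug doses (not always all listed) in √10 steps. Relative viability is the nuclei count in treated wells divided by that in vehicle wells, and each value is the median of duplicate plates.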

GSK126 + Luminespib = compound: CC[C@H](C)N1C=C(C2=C(C=C(C=C21)C3=CN=C(C=C3)N4CCNCC4)C(=O)NCC5=C(C=C(NC5=O)C)C)C [GSK126] + CCNC(=O)c1noc(-c2cc(C(C)C)c(O)cc2O)c1-c1ccc(CN2CCOCC2)cc1 [Luminespib] (partner 0.01 µM)
Method in brief: as §1

Carboplatin + Pemetrexed = compound: C1CC(C1)(C(=O)O)C(=O)O.[NH2-].[NH2-].[Pt+2] [Carboplatin] + Nc1nc2[nH]cc(CCc3ccc(C(=O)N[C@@H](CCC(=O)O)C(=O)O)cc3)c2c(=O)[nH]1 [Pemetrexed] (partner 0.2 µM)
Method in brief: as §1

Carboplatin + Trametinib = compound: C1CC(C1)(C(=O)O)C(=O)O.[NH2-].[NH2-].[Pt+2] [Carboplatin] + CC(=O)Nc1cccc(-n2c(=O)n(C3CC3)c(=O)c3c(Nc4ccc(I)cc4F)n(C)c(=O)c(C)c32)c1 [Trametinib] (partner 0.02 µM)
Method in brief: as §1

Row | Cell Line | relative viability (GSK126 + AZD7762; first compound 0.08 µM) | relative viability (GSK126 + AZD7762; first compound 0.253 µM) | relative viability (GSK126 + AZD7762; first compound 0.8 µM) | relative viability (GSK126 + AZD7762; first compound 2.53 µM) | relative viability (GSK126 + AZD7762; first compound 8 µM) | relative viability (GSK126 + Luminespib; first compound 0.08 µM) | relative viability (GSK126 + Luminespib; first compound 0.253 µM) | relative viability (GSK126 + Luminespib; first compound 0.8 µM) | relative viability (GSK126 + Luminespib; first compound 2.53 µM) | relative viability (GSK126 + Luminespib; first compound 8 µM) | relative viability (Carboplatin + Pemetrexed; first compound 0.08 µM) | relative viability (Carboplatin + Pemetrexed; first compound 0.253 µM) | relative viability (Carboplatin + Pemetrexed; first compound 0.8 µM) | relative viability (Carboplatin + Pemetrexed; first compound 2.53 µM) | relative viability (Carboplatin + Pemetrexed; first compound 8 µM) | relative viability (Carboplatin + Trametinib; first compound 0.08 µM) | relative viability (Carboplatin + Trametinib; first compound 0.253 µM) | relative viability (Carboplatin + Trametinib; first compound 0.8 µM) | relative viability (Carboplatin + Trametinib; first compound 2.53 µM) | relative viability (Carboplatin + Trametinib; first compound 8 µM)
1 | NCI-H2087 | 1.52 | 1.31 | 1.18 | 1.41 | 1.43 | 0.144 | 0.134 | 0.142 | 0.165 | 0.185 | 0.619 | 0.647 | 0.618 | 0.632 | 0.604 | 0.242 | 0.257 | 0.171 | 0.198 | 0.175
2 | NCI-H596 | 1.12 | 0.904 | 1.2 | 1.12 | 0.988 | 1.11 | 0.319 | 0.277 | 0.263 | 0.219 | 0.533 | 0.473 | 0.548 | 0.464 | 0.475 | 0.846 | 0.845 | 0.722 | 0.645 | 0.518
3 | ChaGo-K-1 | 0.881 | 0.87 | 0.836 | 0.893 | 0.874 | 0.602 | 0.675 | 0.556 | 0.769 | 0.397 | 0.262 | 0.261 | 0.253 | 0.249 | 0.269 | 0.857 | 0.917 | 0.831 | 0.717 | 0.546
4 | SW 1573 | – | – | – | – | – | 0.424 | 0.374 | 0.196 | 0.43 | 0.16 | 0.92 | 0.924 | 1.18 | 1.01 | 0.569 | 0.677 | 0.539 | 0.528 | 0.555 | 0.387
5 | LCLC-97TM1 | 0.307 | 0.312 | 0.228 | 0.267 | 0.24 | 0.758 | 0.796 | 0.867 | 0.82 | 0.81 | 0.171 | 0.164 | 0.155 | 0.161 | 0.175 | 0.236 | 0.216 | 0.212 | 0.228 | 0.26
6 | HCC-366 | 0.33 | 0.251 | 0.201 | 0.293 | 0.177 | – | – | – | – | – | 0.156 | 0.153 | 0.164 | 0.18 | 0.145 | 0.406 | 0.43 | 0.372 | 0.269 | 0.179
7 | HARA | 0.379 | 0.397 | 0.4 | 0.266 | 0.203 | 0.787 | 0.679 | 0.688 | 0.895 | 0.813 | 0.232 | 0.201 | 0.241 | 0.247 | 0.246 | 0.68 | 0.865 | 0.917 | 0.412 | 0.607
8 | NCI-H1915 | 0.762 | 0.739 | 0.663 | 0.755 | 0.676 | 0.986 | 0.771 | 0.788 | 0.823 | 0.841 | 0.487 | 0.531 | 0.505 | 0.47 | 0.416 | 0.325 | 0.29 | 0.296 | 0.288 | 0.257
9 | NCI-H1650 | – | – | – | – | – | 0.217 | 0.193 | 0.188 | 0.166 | 0.205 | 0.459 | 0.46 | 0.302 | 0.32 | 0.318 | 0.623 | 0.585 | 0.573 | 0.522 | 0.389
10 | NCI-H650 | 0.946 | 1.11 | 0.964 | 1.01 | 1.16 | 0.92 | 0.787 | 0.744 | 0.834 | 0.876 | 0.935 | 0.97 | 0.947 | 1 | 0.903 | 1.01 | 1.08 | 1 | 0.849 | 0.818
11 | NCI-H2126 | 1.13 | 0.988 | 0.974 | 0.945 | 1.06 | 1 | 0.924 | 0.873 | 0.972 | 0.734 | 0.759 | 0.64 | 0.724 | 0.698 | 0.647 | 0.586 | 0.613 | 0.562 | 0.614 | 0.536
12 | HCC-78 | 0.675 | 0.652 | 0.604 | 0.832 | 0.736 | – | – | – | – | – | 0.898 | 0.905 | 0.893 | 0.883 | 0.854 | 0.828 | 0.587 | 0.653 | 0.674 | 0.73
13 | NCI-H520 | – | – | – | – | – | 0.22 | 0.221 | 0.236 | 0.231 | 0.237 | 0.701 | 0.791 | 0.686 | 0.617 | 0.493 | 0.856 | 0.812 | 0.724 | 0.766 | 0.484
14 | NCI-H661 | – | – | – | – | – | 0.908 | 0.884 | 0.905 | 0.873 | 0.944 | 0.942 | 0.858 | 0.903 | 0.916 | 0.839 | 0.58 | 0.547 | 0.591 | 0.554 | 0.539
15 | NCI-H2009 | – | – | – | – | – | 1.1 | 1.01 | 0.968 | 1.06 | 1.09 | 1.04 | 0.983 | 1 | 0.958 | 0.654 | 0.346 | 0.295 | 0.243 | 0.249 | 0.238
16 | NCI-H727 | 0.683 | 0.619 | 0.539 | 0.64 | 0.458 | 0.482 | 0.375 | 0.421 | 0.345 | 0.336 | – | – | – | – | – | 0.391 | 0.4 | 0.349 | 0.376 | 0.392
17 | NCI-H1703 | 0.115 | 0.115 | 0.133 | 0.118 | 0.137 | – | – | – | – | – | – | – | – | – | – | – | – | – | – | –
18 | NCI-H2023 | – | – | – | – | – | 0.728 | 0.759 | 0.698 | 0.656 | 0.66 | 0.248 | 0.209 | 0.196 | 0.15 | 0.152 | 0.599 | 0.633 | 0.542 | 0.343 | 0.163
19 | NCI-H1563 | – | – | – | – | – | 0.546 | 0.491 | 0.535 | 0.514 | 0.505 | 0.941 | 0.751 | 0.73 | 0.755 | 0.791 | – | – | – | – | –
20 | ABC-1 | 0.587 | 1.04 | 0.95 | 0.886 | 0.916 | 0.737 | 0.449 | 0.575 | 1.13 | 0.955 | – | – | – | – | – | – | – | – | – | –
21 | NCI-H1623 | – | – | – | – | – | 0.617 | 0.425 | 0.502 | 0.512 | 0.42 | – | – | – | – | – | – | – | – | – | –

From the supplement of paper PMC10307832
